Measured values published in PubChem BioAssay AID2060890 (Molecular Pharmacology Branch, DTP, NCI, 2025).

System: LG0703-F948-PDC complex spheroid viability
Assay: Anticancer human tumor LG0703-F948-PDC patient-derived lung adenocarcinoma cell line growth inhibition [RAS]
Conditions: for IC50: curve of first compound; for viability, T/C: stronger effect = lower value
Method in brief: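 Tumour cells grown as complex spheroids with HUVEC endothelial cells and mesenchymal stem cells, treated with RAS pathway inhibitor combinations. Each agent spans half-log steps from near clinical Cmax, or 10 microM where Cmax is unknown.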

[1] = second compound 0.0316 µM, first compound 0.0316 µM
[2] = second compound 0.0316 µM, first compound 0.1 µM
[3] = second compound 0.0316 µM, first compound 0.316 µM
[4] = second compound 0.0316 µM, first compound 1 µM
[5] = second compound 0.0316 µM, first compound 3.16 µM
[6] = second compound 0.0316 µM, first compound 10 µM
[7] = second compound 0.1 µM, first compound 0.0316 µM
[8] = second compound 0.1 µM, first compound 0.1 µM
[9] = second compound 0.1 µM, first compound 0.316 µM
[10] = second compound 0.1 µM, first compound 1 µM
[11] = second compound 0.1 µM, first compound 3.16 µM
[12] = second compound 0.1 µM, first compound 10 µM
[13] = second compound 0.316 µM, first compound 0.0316 µM
[14] = second compound 0.316 µM, first compound 0.1 µM
[15] = second compound 0.316 µM, first compound 0.316 µM
[16] = second compound 0.316 µM, first compound 1 µM
[17] = second compound 0.316 µM, first compound 3.16 µM
[18] = second compound 0.316 µM, first compound 10 µM
[19] = second compound 1 µM, first compound 0.0316 µM
[20] = second compound 1 µM, first compound 0.1 µM
[21] = second compound 1 µM, first compound 0.316 µM
[22] = second compound 1 µM, first compound 1 µM
[23] = second compound 1 µM, first compound 3.16 µM
[24] = second compound 1 µM, first compound 10 µM
[25] = second compound 3.16 µM, first compound 0.0316 µM
[26] = second compound 3.16 µM, first compound 0.1 µM
[27] = second compound 3.16 µM, first compound 0.316 µM
[28] = second compound 3.16 µM, first compound 1 µM
[29] = second compound 3.16 µM, first compound 3.16 µM
[30] = second compound 3.16 µM, first compound 10 µM
[31] = second compound 10 µM, first compound 0.0316 µM
[32] = second compound 10 µM, first compound 0.1 µM
[33] = second compound 10 µM, first compound 0.316 µM
[34] = second compound 10 µM, first compound 1 µM
[35] = second compound 10 µM, first compound 3.16 µM
[36] = second compound 10 µM, first compound 10 µM
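Also: spheroids exposed to agents for 7 days.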
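For viability, T/C in this document: 100% = DMSO vehicle wells.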

`NC1c2ccccc2OC12CCN(c1cnc3c(N4CCCc5ncccc54)n[nH]c3n1)CC2` (stereo unspecified) + C#Cc1c(F)ccc2cc(O)cc(-c3ncc4c(N5CC6CCC(C5)N6)nc(OCC56CCCN5CC(F)C6)nc4c3F)c12 was tested, and the IC50 (second compound 0.0316 µM) was 43.3 nM, the IC50 (second compound 0.1 µM) was < 31.6 nM and the IC50 (second compound 0.316 µM) was < 31.6 nM. For the same molecule, the IC50 (second compound 1 µM) was < 31.6 nM, the IC50 (second compound 3.16 µM) was < 31.6 nM and the IC50 (second compound 10 µM) was < 31.6 nM. It also gave a viability, T/C [1] of 56.9%, a viability, T/C [2] of 32.3% and a viability, T/C [3] of 14.9%. The viability, T/C [4] was 16.3%, the viability, T/C [5] was 5.44% and the viability, T/C [6] was 2.29%. It also gave a viability, T/C [7] of 48.8%, a viability, T/C [8] of 27.7% and a viability, T/C [9] of 16.5%. For the same molecule, the viability, T/C [10] was 8.26%, the viability, T/C [11] was 4.2% and the viability, T/C [12] was 2.16%. The viability, T/C [13] was 43.7%, the viability, T/C [14] was 30.5% and the viability, T/C [15] was 14.4%. For the same molecule, the viability, T/C [16] was 6.72%, the viability, T/C [17] was 4.41% and the viability, T/C [18] was 2.49%. The viability, T/C [19] was 28.2%, the viability, T/C [20] was 21.9% and the viability, T/C [21] was 9.98%. The viability, T/C [22] was 6.62%, the viability, T/C [23] was 3.17% and the viability, T/C [24] was 1.84%. It also gave a viability, T/C [25] of 28.2%, a viability, T/C [26] of 15.1% and a viability, T/C [27] of 11.1%. For the same molecule, the viability, T/C [28] was 6.14%, the viability, T/C [29] was 4.26% and the viability, T/C [30] was 1.29%. It also gave a viability, T/C [31] of 21%, a viability, T/C [32] of 13.5% and a viability, T/C [33] of 5.38%. It also gave a viability, T/C [34] of 2.35%, a viability, T/C [35] of 2.25% and a viability, T/C [36] of 0.66%.
Work on `CC(C)NCC(C(=O)N1CCN(c2ncnc3c2C(C)CC3O)CC1)c1ccc(Cl)cc1` (stereo unspecified) + C#Cc1c(F)ccc2cc(O)cc(-c3ncc4c(N5CC6CCC(C5)N6)nc(OCC56CCCN5CC(F)C6)nc4c3F)c12 yielded an IC50 (second compound 0.0316 µM) of 601 nM, an IC50 (second compound 0.1 µM) of 699 nM and an IC50 (second compound 0.316 µM) of 238 nM. For the same molecule, the IC50 (second compound 1 µM) was 257 nM, the IC50 (second compound 3.16 µM) was 59.4 nM and the IC50 (second compound 10 µM) was < 31.6 nM. It also gave a viability, T/C [1] of 90%, a viability, T/C [2] of 67.3% and a viability, T/C [3] of 59.7%. For the same molecule, the viability, T/C [4] was 46.4%, the viability, T/C [5] was 29.8% and the viability, T/C [6] was 26.1%. The viability, T/C [7] was 86.1%, the viability, T/C [8] was 68.2% and the viability, T/C [9] was 64.5%. The viability, T/C [10] was 40.5%, the viability, T/C [11] was 37.5% and the viability, T/C [12] was 22.9%. For the same molecule, the viability, T/C [13] was 82.5%, the viability, T/C [14] was 60% and the viability, T/C [15] was 44.5%. The viability, T/C [16] was 35%, the viability, T/C [17] was 31.1% and the viability, T/C [18] was 15.8%. The viability, T/C [19] was 68.6%, the viability, T/C [20] was 63.6% and the viability, T/C [21] was 47.5%. For the same molecule, the viability, T/C [22] was 25.6%, the viability, T/C [23] was 20.4% and the viability, T/C [24] was 10.2%. The viability, T/C [25] was 57.6%, the viability, T/C [26] was 43.4% and the viability, T/C [27] was 32.9%. For the same molecule, the viability, T/C [28] was 17.8%, the viability, T/C [29] was 11.7% and the viability, T/C [30] was 7.15%. The viability, T/C [31] was 34%, the viability, T/C [32] was 33.9% and the viability, T/C [33] was 17.9%. The viability, T/C [34] was 8.97%, the viability, T/C [35] was 3.2% and the viability, T/C [36] was 0.42%.
`Cc1nc(N2CCC3(CC2)COC(C)C3N)c(CO)nc1Sc1ccnc(N)c1Cl` (stereo unspecified) + CCn1c(-c2cccnc2C(C)OC)c2c3cc(ccc31)N1CCOC(CC(NC(=O)C(C(C)C)N(C)C(=O)C3(F)CCN(C(=O)C#CC(C)(C)N(C)C)CC3)C(=O)N3CCCC(N3)C(=O)OCC(C)(C)C2)C1 showed an IC50 (second compound 0.000949 µM) of 548 nM, an IC50 (second compound 0.003 µM) of 337 nM and an IC50 (second compound 0.00949 µM) of 402 nM. For the same molecule, the IC50 (second compound 0.03 µM) was 390 nM, the IC50 (second compound 0.0949 µM) was 140 nM and the IC50 (second compound 0.3 µM) was < 31.6 nM. The viability, T/C (second compound 0.000949 µM, first compound 0.0316 µM) was 100%, the viability, T/C (second compound 0.000949 µM, first compound 0.1 µM) was 68.4% and the viability, T/C (second compound 0.000949 µM, first compound 0.316 µM) was 61.6%. For the same molecule, the viability, T/C (second compound 0.000949 µM, first compound 1 µM) was 43.1%, the viability, T/C (second compound 0.000949 µM, first compound 3.16 µM) was 24.8% and the viability, T/C (second compound 0.000949 µM, first compound 10 µM) was 13%. The viability, T/C (second compound 0.003 µM, first compound 0.0316 µM) was 87.8%, the viability, T/C (second compound 0.003 µM, first compound 0.1 µM) was 76% and the viability, T/C (second compound 0.003 µM, first compound 0.316 µM) was 47.8%. For the same molecule, the viability, T/C (second compound 0.003 µM, first compound 1 µM) was 31.7%, the viability, T/C (second compound 0.003 µM, first compound 3.16 µM) was 24.4% and the viability, T/C (second compound 0.003 µM, first compound 10 µM) was 11.9%. The viability, T/C (second compound 0.00949 µM, first compound 0.0316 µM) was 93.1%, the viability, T/C (second compound 0.00949 µM, first compound 0.1 µM) was 74.8% and the viability, T/C (second compound 0.00949 µM, first compound 0.316 µM) was 52.7%. For the same molecule, the viability, T/C (second compound 0.00949 µM, first compound 1 µM) was 36.9%, the viability, T/C (second compound 0.00949 µM, first compound 3.16 µM) was 21.5% and the viability, T/C (second compound 0.00949 µM, first compound 10 µM) was 13.6%. For the same molecule, the viability, T/C (second compound 0.03 µM, first compound 0.0316 µM) was 70.2%, the viability, T/C (second compound 0.03 µM, first compound 0.1 µM) was 58.6% and the viability, T/C (second compound 0.03 µM, first compound 0.316 µM) was 52.1%. It also gave a viability, T/C (second compound 0.03 µM, first compound 1 µM) of 42.4%, a viability, T/C (second compound 0.03 µM, first compound 3.16 µM) of 16.9% and a viability, T/C (second compound 0.03 µM, first compound 10 µM) of 12.7%. For the same molecule, the viability, T/C (second compound 0.0949 µM, first compound 0.0316 µM) was 73.2%, the viability, T/C (second compound 0.0949 µM, first compound 0.1 µM) was 56.8% and the viability, T/C (second compound 0.0949 µM, first compound 0.316 µM) was 35.2%. The viability, T/C (second compound 0.0949 µM, first compound 1 µM) was 23.2%, the viability, T/C (second compound 0.0949 µM, first compound 3.16 µM) was 13.5% and the viability, T/C (second compound 0.0949 µM, first compound 10 µM) was 5.55%. For the same molecule, the viability, T/C (second compound 0.3 µM, first compound 0.0316 µM) was 34.1%, the viability, T/C (second compound 0.3 µM, first compound 0.1 µM) was 26.7% and the viability, T/C (second compound 0.3 µM, first compound 0.316 µM) was 22.8%. It also gave a viability, T/C (second compound 0.3 µM, first compound 1 µM) of 14.3%, a viability, T/C (second compound 0.3 µM, first compound 3.16 µM) of 6.25% and a viability, T/C (second compound 0.3 µM, first compound 10 µM) of 3.6%.
